Experiments:
[1] = tested on: Caco-2 monolayer; test: permeability and efflux across Caco-2 monolayer; conditions: co-treated with piperlongumine
Text: In FIG. 1B, Caco-2 is colon carcinoma cells used to evaluate the permeability and efflux of drug in GI track.

[2] = tested on: MDA-MB-231 cell line; test: in vitro migration assay; type: cell-based
Text: FIG. 2C depicts in vitro migration assay on MDA-MB-231 cell line.

[3] = in vivo oral pharmacokinetic in SD rats; conditions: coadministration with PPL vs DTX alone
[4] = tested on: CYP3A4; test: in vitro microsomal metabolism of taxane by human liver microsomes; type: in vitro ADME; conditions: for metabolism of docetaxel (DTX) by human liver microsomes: PPL added in reaction mixture with DTX
Procedure: In FIG. 1A, in vitro microsomal metabolism studies of DTX by human liver microsomes were carried out in combination with PPL and compared with a known standard CYP3A4 inhibitor, Cyclosporin A (CYA).

[5] = cancer cell lines, with piperlongumine

What does the source list for `COc1cc(/C=C/C(=O)N2CCC=CC2=O)cc(OC)c1OC` [PPL, piperlongumine]?
permeability co-efficient of docetaxel [1]: enhancement; % bridging of migration area ([2]; MDA-MB-231 cell line): significant reduction; anti-migration effect of docetaxel [2, 5]: enhanced; anti-migration effect of paclitaxel [2, 5]: enhanced; oral bioavailability of docetaxel (DTX) [3]: significant enhancement; oral bioavailability of docetaxel (DTX) ([3]; listed as Piperlongumine): significantly enhanced; metabolism of docetaxel (DTX) by human liver microsomes [4]: significantly reduced; metabolism of docetaxel (DTX) by human liver microsomes ([4]; listed as Piperlongumine): reduction; half-life of DTX ([4]; human liver microsomes, PPL added in reaction mixture): doubled; CYP3A4 inhibition ([4]; human liver microsomes, compared with Cyclosporin A (CYA)): comparable to inhibitor CYA; metabolism of paclitaxel by human microsomal enzyme ([4]; with piperlongumine): reduction
